SMILES strings stand for the structures.

This is an account of results in US20080200448A1, “New Pyridine Analogues VIII 518” (ASTRAZENECA AB, priority 2007, published 2008).

The target of the experiment is T1, P2Y12 receptor (Homo sapiens, UniProt Q9H244).
T1 construct: expressed in transfected cells; host or cells: CHO cells (membrane preparation)
T1 sequence (Q9H244 whole entry): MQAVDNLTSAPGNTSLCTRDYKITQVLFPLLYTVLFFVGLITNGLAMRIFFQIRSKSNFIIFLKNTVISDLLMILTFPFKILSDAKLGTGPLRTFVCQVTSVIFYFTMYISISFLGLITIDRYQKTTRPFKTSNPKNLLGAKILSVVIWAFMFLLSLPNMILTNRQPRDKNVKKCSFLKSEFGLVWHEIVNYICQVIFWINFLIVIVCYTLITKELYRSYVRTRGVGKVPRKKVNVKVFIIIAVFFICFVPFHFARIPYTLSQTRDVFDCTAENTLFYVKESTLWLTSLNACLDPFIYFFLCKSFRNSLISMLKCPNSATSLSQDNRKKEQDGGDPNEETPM
Description: Functional inhibition of 2-Me-S-ADP induced P2Y12 signalling (35S-GTPγS binding, cell membranes). The format is biochemical. To be noted: 35S-GTPγS assay, membranes, EC80 concentration of 2-methyl-thio-adenosine diphosphate, 30° C. for 45 min; read-out: GTPγS (IC50 μM). The method, then:
Functional inhibition of- the P2Y12 receptor can be measured by in vitro assays using cell membranes from P2Y12 transfected CHO-cells, the methodology is indicated below.
Functional inhibition of 2-Me-S-ADP induced P2Y12 signalling: 5 μg of membranes were diluted in 200 μl of 200 mM NaCl, 1 mM MgCl2, 50 mM HEPES (pH 7.4), 0.01% BSA, 30 μg/ml saponin and 10 μM GDP. To this was added an EC80 concentration of agonist (2-methyl-thio-adenosine diphosphate), the required concentration of test compound and 0.1 μCi ^35S-GTPγS. The reaction was allowed to proceed at 30° C. for 45 min. Samples were then transferred on to GF/B filters using a cell harvester and washed with wash buffer (50 mM Tris (pH 7.4), 5 mM MgCl2, 50 mM NaCl). Filters were then covered with scintilant and counted for the amount of ^35S-GTPγS retained by the filter. Maximum activity was that determined in the presence of the agonist and minimum activity in the absence of the agonist following subtraction of the value determined for non-specific activity. The effect of compounds at various concentrations was plotted according to the equation
y=A+((B−A)/(1+((C/x)̂D)))
and IC50 estimated where A is the bottom plateau of the curve i.e. the final minimum y value B is the top of the plateau of the curve i.e. the final maximum y value C is the x value at the middle of the curve. This represents the log EC50 value when A+B=100 D is the slope factor. x is the original known x values. Y is the original known y values.
(Binding of GTPγS marks nucleotide exchange on a G protein.)
Regarding `CCOC(=O)c1cc(C#N)c(N2CCC(C(=O)NS(=O)(=O)Cc3ccc(C)cc3)CC2)nc1CN1CCCCC1=O` [Example 63, Ethyl 5-cyano-6-(4-{[(4-methylbenzyl)sulfonyl]carbamoyl}piperidin-1-yl)-2-[(2-oxopiperidin-1-yl)methyl]nicotinate], the 50% inhibitory concentration (IC50) is 0.014 µM.

Turning to `CCOC(=O)c1cc(Cl)c(N2CCC(C(=O)NS(=O)(=O)Nc3ccc(F)cc3)CC2)nc1CN1CCCC1=O` [Example 91, Ethyl 5-chloro-6-[4-({[(4-fluorophenyl)amino]sulfonyl}carbamoyl)piperidin-1-yl]-2-[(2-oxopyrrolidin-1-yl)methyl]nicotinate], the IC50 turned out to be 0.145 µM.

With `CC(C)OC(=O)c1cc(C#N)c(N2CCC(C(=O)NS(=O)(=O)CC3CCOCC3)CC2)nc1CN1CCCC1=O` [Example 73, Isopropyl 5-cyano-2-[(2-oxopyrrolidin-1-yl)methyl]-6-(4-{[(tetrahydro-2H-pyran-4-ylmethyl)sulfonyl]carbamoyl}piperidin-1-yl)nicotinate], the half-inhibitory concentration (IC50) was above 3.3 µM.

Take `CCOC(=O)c1cc(C#N)c(N2CCC(C(=O)NS(=O)(=O)Cc3ccc(C)cc3)CC2)nc1CN1CCCC1=O` [Example 42, Ethyl 5-cyano-6-(4-{[(4-methylbenzyl)sulfonyl]carbamoyl}piperidin-1-yl)-2-[(2-oxopyrrolidin-1-yl)methyl]nicotinate]: the IC50 is 0.012 µM.

As for `CCOC(=O)c1cc(Cl)c(N2CCC(C(=O)NS(=O)(=O)N(C)c3ccc(F)cc3)CC2)nc1CN1CCCC1=O` [Example 92, Ethyl 5-chloro-6-[4-({[(4-fluorophenyl)(methyl)amino]sulfonyl}carbamoyl)piperidin-1-yl]-2-[(2-oxopyrrolidin-1-yl)methyl]nicotinate], the IC50 was found to be 0.077 µM.

`CCOC(=O)c1cc(C#N)c(N2CCC(C(=O)NS(=O)(=O)Cc3ccccc3)CC2)nc1OCC(=O)O` [Example 24, {[6-{4-[(Benzylsulfonyl)carbamoyl]piperidin-1-yl}-5-cyano-3-(ethoxycarbonyl)pyridin-2-yl]oxy}acetic acid]: the concentration for half-maximal inhibition (IC50) worked out at 0.025 µM.

On to `CCOC(=O)c1cc(C#N)c(N2CCC(C(=O)NS(=O)(=O)Cc3ccc(OC)cc3)CC2)nc1CN1CCCC1=O` [Example 75, Ethyl 5-cyano-6-(4-{[(4-methoxybenzyl)sulfonyl]carbamoyl}piperidin-1-yl)-2-[(2-oxopyrrolidin-1-yl)methyl]nicotinate], for which the IC50 came out at 0.0075 µM.

Consider `CCOC(=O)c1cc(C#N)c(N2CCC(C(=O)NS(=O)(=O)Cc3ccc(F)cc3)CC2)nc1CN1CCCCC1=O` [Example 62, Ethyl 5-cyano-6-(4-{[(4-fluorobenzyl)sulfonyl]carbamoyl}piperidin-1-yl)-2-[(2-oxopiperidin-1-yl)methyl]nicotinate], for which the IC50 worked out at 0.148 µM.

On to `CCOC(=O)c1cc(C#N)c(N2CCC(C(=O)NS(=O)(=O)N(C)c3ccccc3)CC2)nc1CN1CCCCC1=O` [Example 71, Ethyl 5-cyano-6-[4-({[methyl(phenyl)amino]sulfonyl}carbamoyl)piperidin-1-yl]-2-[(2-oxopiperidin-1-yl)methyl]nicotinate], for which the IC50 was determined as 0.036 µM.

With `COC(=O)c1cc(Cl)c(N2CCC(C(=O)NS(=O)(=O)Cc3ccccc3)CC2)nc1CN1CCCCC1=O` [Example 129, Methyl 6-{4-[(benzylsulfonyl)carbamoyl]piperidin-1-yl}-5-chloro-2-[(2-oxopiperidin-1-yl)methyl]nicotinate], the IC50 came out at 1.58 µM.

`CCOC(=O)c1cc(C#N)c(N2CCC(C(=O)NS(=O)(=O)CC3CCC3)CC2)nc1CN1CCCC1=O` [Example 74, Ethyl 5-cyano-6-(4-{[(cyclobutylmethyl)sulfonyl]carbamoyl}piperidin-1-yl)-2-[(2-oxopyrrolidin-1-yl)methyl]nicotinate]: the IC50 is 0.037 µM.

Take `CCOC(=O)c1cc(C#N)c(N2CCC(C(=O)NS(=O)(=O)Cc3ccccc3)CC2)nc1COC(C)=O` [Example 5, Ethyl 2-(acetoxymethyl)-6-{4-[(benzylsulfonyl)carbamoyl]piperidin-1-yl}-5-cyanonicotinate]: the IC50 worked out at 0.044 µM.

With `CCOC(=O)c1cc(C#N)c(N2CCC(C(=O)NS(=O)(=O)Cc3ccccc3)CC2)nc1OCCN1CCCC1=O` [Example 114, Ethyl 6-{4-[(benzylsulfonyl)carbamoyl]piperidin-1-yl}-5-cyano-2-[2-(2-oxopyrrolidin-1-yl)ethoxy]nicotinate], the IC50 came out at 0.027 µM.

Regarding `CC(C)OC(=O)c1cc(C#N)c(N2CCC(C(=O)NS(=O)(=O)N(C)c3ccc(F)cc3)CC2)nc1CN1CCCC1=O` [Example 79, Isopropyl 5-cyano-6-[4-({[(4-fluorophenyl)(methyl)amino]sulfonyl}carbamoyl)piperidin-1-yl]-2-[(2-oxopyrrolidin-1′-yl)methyl]nicotinate], the IC50 came out at 0.014 µM.

In the case of `CCOC(=O)c1cc(C#N)c(N2CCC(C(=O)NS(=O)(=O)Cc3ccccc3)CC2)nc1CSc1nccs1` [Example 117, Ethyl 6-{4-[(benzylsulfonyl)carbamoyl]piperidin-1-yl}-5-cyano-2-[(1,3-thiazol-2-ylthio)methyl]nicotinate], the IC50 was found to be 0.035 µM.

In the case of `CCOC(=O)c1cc(C#N)c(N2CCC(C(=O)NS(=O)(=O)Cc3ccccc3)CC2)nc1CSCCO` [Example 28, Ethyl 6-{4-[(benzylsulfonyl)carbamoyl]piperidin-1-yl}-5-cyano-2-{[(2-hydroxyethyl)thio]methyl}nicotinate], the IC50 was found to be 0.037 µM.

`CC(C)OC(=O)c1cc(C#N)c(N2CCC(C(=O)NS(=O)(=O)Cc3ccc(Cl)cc3Cl)CC2)nc1CN1CCCC1=O` [Example 53, Isopropyl 5-cyano-6-(4-{[(2,4-dichlorobenzyl)sulfonyl]carbamoyl}piperidin-1-yl)-2-[(2-oxopyrrolidin-1-yl)methyl]nicotinate]: the half-inhibitory concentration (IC50) came out at 0.032 µM.

Regarding `CCOC(=O)c1cc(C#N)c(N2CCC(C(=O)NS(=O)(=O)Cc3ccccc3)CC2)nc1OCC(=O)NC` [Example 25, Ethyl 6-{4-[(benzylsulfonyl)carbamoyl]piperidin-1-yl}-5-cyano-2-[2-(methylamino)-2-oxoethoxy]nicotinate], the IC50 was determined as 0.075 µM.

`CC(C)OC(=O)c1cc(C#N)c(N2CCC(C(=O)NS(=O)(=O)Cc3ccc(Cl)cc3)CC2)nc1CN1CCCC1=O` [Example 48, Isopropyl 6-(4-{[(4-chlorobenzyl)sulfonyl]carbamoyl}piperidin-1-yl)-5-cyano-2-[(2-oxopyrrolidin-1-yl)methyl]nicotinate]: the half-inhibitory concentration (IC50) was determined as 0.012 µM.

With `CCOC(=O)c1cc(Cl)c(N2CCC(C(=O)NS(=O)(=O)Cc3ccccc3)CC2)nc1CN1CCCC1=O` [Example 85, Ethyl 6-{4-[(benzylsulfonyl)carbamoyl]piperidin-1-yl}-5-chloro-2-[(2-oxopyrrolidin-1-yl)methyl]nicotinate], the IC50 was 0.041 µM.

As for `CCOC(=O)c1cc(C#N)c(N2CC(C(=O)NS(=O)(=O)Cc3ccccc3)C2)nc1COC(C)=O` [Example 7, Ethyl 2-(acetoxymethyl)-6-{3-[(benzylsulfonyl)carbamoyl]azetidin-1-yl}-5-cyanonicotinate], the 50% inhibitory concentration (IC50) came out at 0.076 µM.

On to `CCOC(=O)c1cc(C#N)c(N2CCC(C(=O)NS(=O)(=O)Cc3ccccc3)CC2)nc1COC(=O)CO` [Example 16, Ethyl 6-{4-[(benzylsulfonyl)carbamoyl]piperidin-1-yl}-5-cyano-2-[(glycoloyloxy)methyl]nicotinate], for which the IC50 amounted to 0.015 µM.

Turning to `CCOC(=O)c1cc(C#N)c(N2CCC(C(=O)NS(=O)(=O)Cc3ccccc3)CC2)nc1SCC(=O)O` [Example 26, {[6-{4-[(Benzylsulfonyl)carbamoyl]piperidin-1-yl}-5-cyano-3-(ethoxycarbonyl)pyridin-2-yl]thio}acetic acid], the IC50 was determined as 0.0081 µM.

As for `CC(C)OC(=O)c1cc(C#N)c(N2CCC(C(=O)NS(=O)(=O)CC3CCC3)CC2)nc1CN1CCCC1=O` [Example 81, Isopropyl 5-cyano-6-(4-{[(cyclobutylmethyl)sulfonyl]carbamoyl}piperidin-1-yl)-2-[(2-oxopyrrolidin-1-yl)methyl]nicotinate], the concentration for half-maximal inhibition (IC50) came out at 0.094 µM.

`CCOC(=O)CSc1nc(N2CCC(C(=O)NS(=O)(=O)CC3CCCC3)CC2)c(C#N)cc1C(=O)OCC` [Example 110, Ethyl 5-cyano-6-(4-{[(cyclopentylmethyl)sulfonyl]carbamoyl}piperidin-1-yl)-2-[(2-ethoxy-2-oxoethyl)thio]nicotinate]: the IC50 came out at 0.053 µM.

In the case of `CCOC(=O)c1cc(C#N)c(N2CC(C(=O)NS(=O)(=O)Cc3ccccc3)C2)nc1CS(C)(=O)=O` [Example 10, Ethyl 6-{3-[(benzylsulfonyl)carbamoyl]azetidin-1-yl}-5-cyano-2-[(methylsulfonyl)methyl]nicotinate], the IC50 was found to be 0.243 µM.

As to `CCOC(=O)CSc1nc(N2CCC(C(=O)NS(=O)(=O)Cc3ccc(Cl)cc3Cl)CC2)c(C#N)cc1C(=O)OCC` [Example 109, Ethyl 5-cyano-6-(4-{[(2,4-dichlorobenzyl)sulfonyl]carbamoyl}piperidin-1-yl)-2-[(2-ethoxy-2-oxoethyl)thio]nicotinate], the IC50 was found to be 0.062 µM.

A word on the IC50: it is the point on the concentration scale where inhibition reaches its midpoint.
